Where “and” joins values, the source holds several entries; their conditions need not be identical. Equal entries are not always repeated. Inconclusive results and toxic doses are left out. The calls were made as follows: active = survival T/C of 150% or more; inactive = T/C below 125% in these data.
System: CD2F1 mice, L1210 leukemia ip, survival T/C
Experiment: NCI In Vivo Anticancer Drug Screen. Data for tumor model L1210 Leukemia (intraperitoneal) in CD2F1 (CDF1) mice
Settings: higher = longer survival
Procedure, shortened: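 Compound-dosed mice with transplantable tumor versus matched vehicle controls; endpoint ratio T/C reported.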

[1] = endpoint: mean survival time, dose: 100.0 mg/kg/injection, schedule: Q01DX001 (ip), vehicle: saline
[2] = endpoint: mean survival time, dose: 100.0 mg/kg/injection, schedule: Q01DX009 (ip), vehicle: saline with Tween-80
[3] = endpoint: mean survival time, dose: 100.0 mg/kg/injection, schedule: Q04DX003 (ip), vehicle: saline with Tween-80
[4] = endpoint: mean survival time, dose: 200.0 mg/kg/injection, schedule: Q01DX009 (ip), vehicle: saline with Tween-80
[5] = endpoint: mean survival time, dose: 200.0 mg/kg/injection, schedule: Q04DX003 (ip), vehicle: saline with Tween-80
[6] = endpoint: mean survival time, dose: 400.0 mg/kg/injection, schedule: Q01DX009 (ip), vehicle: saline with Tween-80
[7] = endpoint: mean survival time, dose: 400.0 mg/kg/injection, schedule: Q04DX003 (ip), vehicle: saline with Tween-80

Measured: T/C

CN(C)C(=O)/N=N/C(=O)N(C)C
inactive: [1] 104 % of control

c1cnc(NCCSSCCNc2ncccn2)nc1
inactive: [2] 91 % of control | [3] 97 % of control | [4] 89 % of control | [5] 97 % of control | [6] 91 % of control | [7] 96 % of control

CCN(CC)C(C)C(=O)Nc1c(C)cccc1Cl (centres undefined)
inactive: endpoint: mean survival time, dose: 25.0 mg/kg/injection, schedule: Q01DX009 (ip), vehicle: saline 92 % of control | [1] 109 % of control

BrC[P+](CBr)(CBr)CBr
inactive: endpoint: median survival time, dose: 25.0 mg/kg/injection, schedule: Q01DX009 (ip), vehicle: saline with Tween-80 98 % of control | endpoint: median survival time, dose: 50.0 mg/kg/injection, schedule: Q01DX009 (ip), vehicle: saline with Tween-80 102 % of control | endpoint: median survival time, dose: 100.0 mg/kg/injection, schedule: Q01DX009 (ip), vehicle: saline with Tween-80 102 % of control | endpoint: median survival time, dose: 200.0 mg/kg/injection, schedule: Q01DX009 (ip), vehicle: saline with Tween-80 109 % of control | endpoint: median survival time, dose: 400.0 mg/kg/injection, schedule: Q01DX009 (ip), vehicle: saline with Tween-80 96 % of control

O=P(OCCCOCc1ccccc1)(N(CCCl)CCCl)N1CC1 (centres undefined)
inactive: endpoint: mean survival time, dose: 25.0 mg/kg/injection, schedule: Q01DX001 (ip), vehicle: other 104 % of control | endpoint: mean survival time, dose: 50.0 mg/kg/injection, schedule: Q01DX001 (ip), vehicle: other 106 % of control | endpoint: mean survival time, dose: 100.0 mg/kg/injection, schedule: Q01DX001 (ip), vehicle: DMSO 98 % of control | endpoint: mean survival time, dose: 100.0 mg/kg/injection, schedule: Q01DX001 (ip), vehicle: other 118 % of control | endpoint: mean survival time, dose: 200.0 mg/kg/injection, schedule: Q01DX001 (ip), vehicle: DMSO 103 % of control | endpoint: mean survival time, dose: 200.0 mg/kg/injection, schedule: Q01DX001 (ip), vehicle: other 101 % of control | endpoint: mean survival time, dose: 400.0 mg/kg/injection, schedule: Q01DX001 (ip), vehicle: DMSO 109 % of control | endpoint: mean survival time, dose: 400.0 mg/kg/injection, schedule: Q01DX001 (ip), vehicle: other 87 % of control

CCOC(/C=C/c1ccccc1)OCC
inactive: endpoint: mean survival time, dose: 100.0 mg/kg/injection, schedule: Q01DX009 (ip), vehicle: saline 100 % of control | endpoint: mean survival time, dose: 200.0 mg/kg/injection, schedule: Q01DX009 (ip), vehicle: saline 94 % of control | endpoint: mean survival time, dose: 400.0 mg/kg/injection, schedule: Q01DX009 (ip), vehicle: saline 103 % of control

CSCCC(NC(=O)c1ccccc1)C(=O)O (centres undefined)
inactive: [2] 91 % of control | [4] 87 % of control | [6] 90 % of control

O=C(NCCc1nc(-c2nc(C(=O)O)cs2)cs1)c1ccccc1
inactive: [2] 96 % of control | [4] 96 % of control | [6] 96 % of control

COc1ccc(C2=CCCCc3cc(O)c(OC)cc32)cc1
inactive: endpoint: mean survival time, dose: 50.0 mg/kg/injection, schedule: Q01DX009 (ip), vehicle: saline with Tween-80 100 % of control | [2] 100 % of control | [4] 100 % of control

[Br][Pt+2][Br].[NH-]c1ccccc1F.[NH-]c1ccccc1F
inactive: endpoint: mean survival time, dose: 3.13 mg/kg/injection, schedule: Q04DX003 (ip), vehicle: distilled water + Tween-80 104 % of control | endpoint: mean survival time, dose: 6.25 mg/kg/injection, schedule: Q04DX003 (ip), vehicle: distilled water + Tween-80 104 % of control | endpoint: mean survival time, dose: 12.5 mg/kg/injection, schedule: Q04DX003 (ip), vehicle: distilled water + Tween-80 108 % of control | endpoint: mean survival time, dose: 25.0 mg/kg/injection, schedule: Q04DX003 (ip), vehicle: distilled water + Tween-80 108 % of control | endpoint: mean survival time, dose: 50.0 mg/kg/injection, schedule: Q04DX003 (ip), vehicle: distilled water + Tween-80 101 % of control | endpoint: mean survival time, dose: 100.0 mg/kg/injection, schedule: Q04DX003 (ip), vehicle: distilled water + Tween-80 93 % of control

COC(CNCCO)c1ccccc1 (centres undefined)
inactive: endpoint: mean survival time, dose: 25.0 mg/kg/injection, schedule: Q01DX001 (ip), vehicle: saline 97 % of control | endpoint: mean survival time, dose: 50.0 mg/kg/injection, schedule: Q01DX001 (ip), vehicle: saline 101 % of control | [1] 100 % of control and 106 % of control

ClC(Cl)(Cl)C1OCCO1
inactive: [2] 95 % of control | [3] 97 % of control | [4] 104 % of control | [5] 102 % of control | [6] 91 % of control | [7] 97 % of control

— PubChem BioAssay AID256 (DTP/NCI, 2004)
